From US6083985A, “Medicinal composition” (Banyu Pharmaceutical Co., Ltd., priority 1995, dated 2000)
Like-named read-outs stand apart in the source and are kept apart here.

What was measured:
[1] = tested on: farnesylation of Ras protein in NIH3T3 cells; test: Inhibitory effect on farnesylation of Ras protein in NIH3T3 cells into which an activated ras gene was introduced (SDS-PAGE, anti-Ras antibody, densitometry); assay type: cell-based; conditions: for inhibitory activity on farnesylation of Ras proteins in the presence of L-654,969: in the presence of L-654,969 (0.15 μM or 5 μM)
Procedure: Inhibitory effect on farnesylation of Ras protein in NIH3T3 cells into which an activated ras gene was introduced, was measured by using the compounds prepared in Preparation Examples 3 and 5 as PFT inhibitors and L-654,969 (an active metabolite of simvastatin) as a hydroxymethylglutaryl CoA reductase inhibitor.
The cells were cultured for 24 hours, peeled off the plates and dissolved in accordance with the method disclosed in J. Biol. Chem., vol. 268, 18415 (1993). The cell solutions were centrifuged at 12000 g for 5 minutes, and the supernatants were used as cell extracts. The cell extracts were subjected to SDS polyacrylamide gel electrophoresis to separate the farnesylated Ras protein and the unfarnesylated Ras protein. […] After the anti-primary antibody, a peroxidaze-conjugated antibody (a secondary antibody) was allowed to react, the Ras protein was detected by mean of a chemoluminescence amplification kit. The proportion of the unfarnesylated Ras protein was determined by using a densitometer and defined as the inhibitory activity.

BMJ1 cells = test: Inhibitory activity on proliferation of transformed BMJ1 cells (SRB method); assay type: cell-based, mouse; conditions: for IC50: Mus musculus, transformed BMJ1 cells; for 50% cell proliferation inhibitory activity in the presence of L-654,969: presence of 0.8 μM of L-654,969
Procedure: The BMJ1 cells which were obtained by introducing a hormone-inducible activated ras gene into BALB3T3 cells, a mouse-derived established cell line, were transformed by adding dexamethasone to the culture so as to produce an activated Ras protein. To assess the inhibitory effects of the PFT inhibitors on cell proliferation, the 50% proliferation inhibitory concentration for each compound was calculated by adding each compound to a transformed BMJ1 cell culture at various concentrations, and counting the number of cells after incubation. The cell numbers were counted in accordance with the SRB method disclosed in Proc. Am. Assoc. Cancer Res., vol.

[2] = PFT inhibitor 1 μM, L-654,969 5 μM, 24 hours
[3] = PFT inhibitor 3 μM, L-654,969 0.15 μM, 24 hours
[4] = PFT inhibitor 3 μM, L-654,969 5 μM, 24 hours
[5] = In the absence of L-654,969, read-out: 50% Proliferation inhibitory concentration (IC50 μM) In the absence of L-654,969
[6] = In the presence of 0.8 μM of L-654,969, read-out: 50% Proliferation inhibitory concentration (IC50 μM) In the presence of 0.8 μM of L-654,969

## C[C@H]([C@H](C/C=C/c1nc2ccccc2o1)c1ccc2c(c1)OCO2)N(Cc1ccc2ccccc2c1)C(=O)CC(CC(=O)O)(C(=O)O)C(=O)O (racemic) [Preparation Example 3, 3-[N-{(1RS,2RS,4E)-5-(2-benzoxazolyl)-1-methyl-2-(3,4-methylenedioxyphenyl)-4-pentenyl}-N-(2-naphthylmethyl)carbamoyl]-1,2,2-propanetricarboxylic acid]
[1]; Mus musculus, NIH3T3, PFT inhibitor 10 μM, L-654,969: None, 24 hours, read-out: Inhibitory rate (%) on farnesylation of the Ras proteins
  inhibition at 10 µM: 32%
[1]; [2]
  Inhibitory rate (%) on farnesylation of the Ras proteins: 55%
[1]; [3]
  Inhibitory rate (%) on farnesylation of the Ras proteins: 27%
[1]; [4]
  Inhibitory rate (%) on farnesylation of the Ras proteins: 88%
[1]; PFT inhibitor 10 μM, L-654,969 0.15 μM, 24 hours
  Inhibitory rate (%) on farnesylation of the Ras proteins: 67%
[1]; PFT inhibitor 10 μM, L-654,969 5 μM, 24 hours
  Inhibitory rate (%) on farnesylation of the Ras proteins: 90%
[1]
  inhibitory activity on farnesylation of Ras proteins in the presence of L-654,969: increased synergically and concentration-dependently
BMJ1 cells; [5]
  IC50: 130 µM
BMJ1 cells; [6]
  IC50: 11 µM
BMJ1 cells
  50% cell proliferation inhibitory activity in the presence of L-654,969: increased synergecally and concentration-dependently

## C[C@H]([C@H](C/C=C/c1nc2ccccc2o1)c1ccc2c(c1)OCO2)N(Cc1ccc2ccccc2c1)C(=O)[C@H](O)[C@@H](CC(=O)[O-])C(=O)[O-].[Na+].[Na+] (racemic) [Preparation Example 4, disodium (3RS,4RS)-4-[N-{(1RS,2RS,4E)-5-(2-benzoxazolyl)-1-methyl-2-(3,4-methylenedioxyphenyl)-4-pentenyl}-N-(2-naphthylmethyl)carbamoyl]-3-carboxylato-4-hydroxybutanoate]
BMJ1 cells; [5]
  IC50: 105 µM
BMJ1 cells; [6]
  IC50: 6.5 µM
BMJ1 cells
  50% cell proliferation inhibitory activity in the presence of L-654,969: increased synergecally and concentration-dependently

## CCC(C)(C)C(=O)O[C@H]1C[C@@H](C)C=C2C=C[C@H](C)[C@H](CC[C@@H](O)C[C@@H](O)CC(=O)O)[C@H]21 [L-654,969, reference compound]
[1]; 0.15 μM or 5 μM, by itself
  inhibition of farnesylation of the Ras proteins by L-654,969 by itself: does not inhibit farnesylation of the Ras proteins
BMJ1 cells; 0.8 μM, alone
  inhibition of cell proliferation by L-654,969 alone: does not inhibit cell proliferation alone

## C[C@H]([C@H](C/C=C/c1nc2ccccc2o1)c1ccc2c(c1)OCO2)N(Cc1ccc2ccccc2c1)C(=O)C(O)=C(CC(=O)O)C(=O)OC(C)(C)C [Preparation Example 5, 4-[N-{(1R,2R,4E)-5-(2-benzoxazolyl)-1-methyl-2-(3,4-methylenedioxyphenyl)-4-pentenyl}-N-(2-naphthylmethyl)carbamoyl]-3-tert-butoxycarbonyl-4-hydroxy-3-butenoic acid]
[1]; Mus musculus, NIH3T3, PFT inhibitor 3 μM, L-654,969: None, 24 hours, read-out: Inhibitory rate (%) on farnesylation of the Ras proteins
  inhibition at 3 µM: 32%
[1]; PFT inhibitor 0.3 μM, L-654,969 5 μM, 24 hours
  Inhibitory rate (%) on farnesylation of the Ras proteins: 43%
[1]; PFT inhibitor 1 μM, L-654,969 0.15 μM, 24 hours
  Inhibitory rate (%) on farnesylation of the Ras proteins: 18%
[1]; [2]
  Inhibitory rate (%) on farnesylation of the Ras proteins: 86%
[1]; [3]
  Inhibitory rate (%) on farnesylation of the Ras proteins: 72%
[1]; [4]
  Inhibitory rate (%) on farnesylation of the Ras proteins: 95%
[1]
  inhibitory activity on farnesylation of Ras proteins in the presence of L-654,969: increased synergically and concentration-dependently
BMJ1 cells; [5]
  IC50: 3.1 µM
BMJ1 cells; [6]
  IC50: 0.93 µM
BMJ1 cells
  50% cell proliferation inhibitory activity in the presence of L-654,969: increased synergecally and concentration-dependently
